biological target: T1, Complement C1s subcomponent (Homo sapiens, UniProt P09871); assay: C1s inhibitor IC50 values, dose response, biochemical (AID 787)
T1 sequence (P09871 whole entry): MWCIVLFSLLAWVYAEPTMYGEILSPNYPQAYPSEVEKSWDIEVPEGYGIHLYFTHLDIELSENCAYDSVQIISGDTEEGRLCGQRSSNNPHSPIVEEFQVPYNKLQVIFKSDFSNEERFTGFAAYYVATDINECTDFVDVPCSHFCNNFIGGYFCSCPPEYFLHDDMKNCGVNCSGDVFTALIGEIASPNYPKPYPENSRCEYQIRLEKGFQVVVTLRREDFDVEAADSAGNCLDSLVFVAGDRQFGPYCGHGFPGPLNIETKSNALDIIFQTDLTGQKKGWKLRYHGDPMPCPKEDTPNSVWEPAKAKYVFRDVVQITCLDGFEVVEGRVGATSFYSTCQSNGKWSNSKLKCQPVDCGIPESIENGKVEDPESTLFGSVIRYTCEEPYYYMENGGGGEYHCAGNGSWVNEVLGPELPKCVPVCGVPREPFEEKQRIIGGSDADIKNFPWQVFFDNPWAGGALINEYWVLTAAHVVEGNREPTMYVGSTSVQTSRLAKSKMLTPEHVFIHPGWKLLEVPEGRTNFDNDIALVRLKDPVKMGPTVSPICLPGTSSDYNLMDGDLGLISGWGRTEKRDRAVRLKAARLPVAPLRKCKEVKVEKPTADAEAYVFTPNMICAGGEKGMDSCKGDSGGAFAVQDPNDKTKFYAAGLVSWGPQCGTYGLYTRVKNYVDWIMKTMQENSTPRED

Structure (SMILES)	IC50 [µM]
CCOc1ccc(NC(=O)CN2CCN(CC(=O)Nc3ccc4c(c3)OCO4)CC2)cc1 [2-[4-[2-(1,3-benzodioxol-5-ylamino)-2-keto-ethyl]piperazino]-N-p-phenetyl-acetamide]	> 50
CCOC(=O)COc1ccc(S(=O)(=O)NCCC2=CCCCC2)cc1 [2-[4-[2-(1-cyclohexenyl)ethylsulfamoyl]phenoxy]acetic acid ethyl ester]	> 50
O=C(CN1CCN(CC(=O)Nc2ccccn2)CC1)Nc1ccccn1 [2-[4-[2-keto-2-(2-pyridylamino)ethyl]piperazino]-N-(2-pyridyl)acetamide]	> 50
CCOC(=O)Cc1nnc(NC(=O)C(CC)Sc2nnc3c4ccccc4n(C)c3n2)s1 (configuration not stated) [2-[5-[2-[(5-methyl-[1,2,4]triazin[5,6-b]indol-3-yl)thio]butanoylamino]-1,3,4-thiadiazol-2-yl]acetic acid ethyl ester]	> 50
COC(=O)Cc1n[nH]c2c1C1(C(=O)N(Cc3ccccc3)c3ccccc31)C(C#N)C(=N)O2 (configuration not stated) [2-[6-amino-5-cyano-2'-oxo-1'-(phenylmethyl)-3-spiro[2H-pyrano[2,3-c]pyrazole-4,3'-indole]yl]acetic acid methyl ester]	> 50
Cc1ccc(-n2c(SCC(=O)N3CCCC3)nc3c(c2=O)SCC3)cc1 [2-[(2-keto-2-pyrrolidino-ethyl)thio]-3-(p-tolyl)-6,7-dihydrothieno[3,2-d]pyrimidin-4-one]	> 50
CCOC(=O)COc1nc(OC)nc(N2CCOCC2)n1 [2-[(4-methoxy-6-morpholino-s-triazin-2-yl)oxy]acetic acid ethyl ester]	> 50
CCOC(=O)c1c(-c2ccc(C)o2)csc1NC(=O)CN1CCN(CC)CC1 [2-[[2-(4-ethyl-1-piperazinyl)-1-oxoethyl]amino]-4-(5-methyl-2-furanyl)-3-thiophenecarboxylic acid ethyl ester]	> 50
COC(=O)c1ccccc1NC(=O)c1cc(-c2ccc(OC)c(OC)c2)on1 [2-[[5-(3,4-dimethoxyphenyl)isoxazole-3-carbonyl]amino]benzoic acid methyl ester]	> 50
O=C(Oc1ccc(-n2cnnn2)cc1)c1ccco1 [2-furancarboxylic acid [4-(1-tetrazolyl)phenyl] ester]	> 50
CSc1nc(-c2ccco2)nn1C(=O)c1ccco1 [2-furanyl-[3-(2-furanyl)-5-(methylthio)-1,2,4-triazol-1-yl]methanone]	4.88
Cc1nc2scc(-c3cccs3)c2c(=O)o1 [2-methyl-5-(2-thienyl)thieno[2,3-d][1,3]oxazin-4-one]	> 50
Cc1nc2sc(C(c3cccs3)N3CCN(Cc4ccccc4)CC3)c(O)n2n1 (configuration not stated) [2-methyl-5-[[4-(phenylmethyl)-1-piperazinyl]-thiophen-2-ylmethyl]-6-thiazolo[3,2-b][1,2,4]triazolol]	> 50
O=C(COC(=O)c1cnccn1)c1ccc(OC(=O)c2ccccc2)cc1 [2-pyrazinecarboxylic acid [2-(4-benzoyloxyphenyl)-2-oxoethyl] ester]	> 50
CC(C)(C)c1cc(C(=O)NCc2ccccc2)ccn1 [2-tert-butyl-N-(phenylmethyl)-4-pyridinecarboxamide]	> 50
COc1ccc(C(=O)SC2=NCCS2)cc1OC [3,4-dimethoxybenzenecarbothioic acid S-(4,5-dihydrothiazol-2-yl) ester]	> 50
COc1cc(OC)cc(C(=O)Nc2ncc3c(n2)CC(C)CC3=O)c1 (configuration not stated) [3,5-dimethoxy-N-(7-methyl-5-oxidanylidene-7,8-dihydro-6H-quinazolin-2-yl)benzamide]	> 50
CCCc1nc2ccccc2c(=O)n1-c1c(C)n(C)n(-c2ccccc2)c1=O [3-(1,5-dimethyl-3-oxo-2-phenyl-4-pyrazolyl)-2-propyl-4-quinazolinone]	> 50
O=C(Nc1nc(-c2cccs2)cs1)c1cccc(S(=O)(=O)N2CCCCCC2)c1 [3-(1-azepanylsulfonyl)-N-(4-thiophen-2-yl-2-thiazolyl)benzamide]	> 50
Cc1cc(NC(=O)c2cccc(S(=O)(=O)N3CCCCCC3)c2)n(-c2ccccn2)n1 [3-(1-azepanylsulfonyl)-N-[5-methyl-2-(2-pyridinyl)-3-pyrazolyl]benzamide]	> 50
CC1(C)C(c2ccccc2)=NC(c2cccnc2)N1O (configuration not stated) [3-(1-hydroxy-5,5-dimethyl-4-phenyl-2H-imidazol-2-yl)pyridine]	> 50
COc1ccccc1CN1CCCCC1c1cccnc1 (configuration not stated) [3-(1-o-anisyl-2-piperidyl)pyridine]	> 50
O=C(Nc1ccccn1)c1cccc(S(=O)(=O)N2CCCCC2)c1 [3-(1-piperidinylsulfonyl)-N-(2-pyridinyl)benzamide]	> 50
O=C(Nc1nccs1)c1cccc(S(=O)(=O)N2CCCCC2)c1 [3-(1-piperidinylsulfonyl)-N-(2-thiazolyl)benzamide]	> 50
O=C(Nc1nc(-c2cccs2)cs1)c1cccc(S(=O)(=O)N2CCCCC2)c1 [3-(1-piperidinylsulfonyl)-N-(4-thiophen-2-yl-2-thiazolyl)benzamide]	> 50

Continued, values first:

IC50 [µM]	Structure (SMILES)
> 50	O=C(NCc1cccs1)c1cccc(S(=O)(=O)N2CCCCC2)c1 [3-(1-piperidinylsulfonyl)-N-(thiophen-2-ylmethyl)benzamide]
37.9	O=c1c(-c2ccco2)[n+]([O-])c2ccccc2n1OCc1ccccn1 [3-(2-furanyl)-4-oxido-1-(2-pyridinylmethoxy)-2-quinoxalin-4-iumone]
> 50	CCc1ccc(-c2cn(-c3nc(C)cc(C)n3)c(=N)o2)cc1 [3-(4,6-dimethyl-2-pyrimidinyl)-5-(4-ethylphenyl)-2-oxazolimine]
> 50	CC1CCN(S(=O)(=O)c2cccc(C(=O)NCc3cccs3)c2)CC1 [3-(4-Methyl-piperidine-1-sulfonyl)-N-thiophen-2-ylmethyl-benzamide]
> 50	CC(=O)N1CCN(C(=O)c2cccc(S(=O)(=O)Nc3ccc(C)cc3)c2)CC1 [3-(4-acetylpiperazine-1-carbonyl)-N-(4-methylphenyl)benzenesulfonamide]
> 50	CC1CCN(S(=O)(=O)c2cccc(C(=O)Nc3nccs3)c2)CC1 [3-(4-methylpiperidin-1-yl)sulfonyl-N-(1,3-thiazol-2-yl)benzamide]
> 50	O=C(Nc1nccs1)c1cccc(S(=O)(=O)N2CCOCC2)c1 [3-(4-morpholinylsulfonyl)-N-(2-thiazolyl)benzamide]
> 50	Cc1csc(N(C(=O)c2cccc(S(=O)(=O)N(C)C)c2)c2ccccc2)n1 [3-(dimethylsulfamoyl)-N-(4-methyl-1,3-thiazol-2-yl)-N-phenyl-benzamide]
> 50	c1ccc(Cc2nn3c(COc4ccccc4)nnc3s2)cc1 [3-(phenoxymethyl)-6-(phenylmethyl)-[1,2,4]triazolo[3,4-b][1,3,4]thiadiazole]
> 50	CCn1c(=O)c(C(C)=O)nc2ccccc21 [3-acetyl-1-ethyl-2-quinoxalinone]
> 50	O=C(NC1=NCCS1)c1cccc(S(=O)(=O)N2CCCCC2)c1 [3-piperidinosulfonyl-N-(2-thiazolin-2-yl)benzamide]
> 50	c1cncc(-c2nnc3n2N=C(c2cccs2)CS3)c1 [3-pyridin-3-yl-6-thiophen-2-yl-7H-[1,2,4]triazolo[3,4-b][1,3,4]thiadiazine]

Source: BindingDB's records for doi:10.7270/Q2MP51PC (Pcmd, 2008)
